Data reported in patent US10358434B2, “2-(3-pyridinyl)-1H-benzimidazole derivative compound and medicament containing same” (NIHON MEDI-PHYSICS CO., LTD., priority 2014, dated 2019).

How the values were obtained:
[1] = In vivo kinetics experiment (radioactivity distribution); parameters: species or system Wistar male rat; details: rat, caudal vein
Outline: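 Male Wistar rats (9 weeks) under isoflurane received approximately 1 to 3.7 MBq radiotracer in saline with 1 w/v % ascorbic acid by tail-vein injection. At 10, 30 and 60 min, rats were exsanguinated; blood, organs and remaining body weighed and counted, giving % ID/g and adrenal-to-tissue ratios.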

[2] = test system: human adrenal gland section expressing aldosterone-producing adenoma; test: In vitro autoradiography using human adrenal adenoma; format: binding; details: section of FIG. 17(b)
Outline: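 Frozen 7-μm sections of human adrenal bearing aldosterone-producing adenoma were immersed 10 min in radioligand (5-33 kBq/mL) in PBS with 1% fatty-acid-free BSA, washed, then exposed to imaging plates for 16-20 h. Equal-area ROI PSL in adenoma (B2) versus normal cortex (B1) gave B2/B1, corrected for nuclide half-life, added activity and exposure time.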

[3] = Plasma stability evaluation (TLC analysis); format: in vitro ADME; details: 37° C., 60 minutes, TLC analysis
Outline: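 Radiolabelled compounds were incubated in heparin-treated pooled normal human plasma at 37° C for 60 minutes. After methanol deproteinization and centrifugation, stability was assessed by TLC under the conditions used for each compound's synthesis.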

[123I]c1ccc2nc(-c3cncc(Cn4ccnn4)c3)n(C3CC3)c2c1 [[^123I] 603, 1-Cyclopropyl-2-[3-(1H-1,2,3-triazol-1-ylmethyl)pyridin-5-yl]-6-[^123I]iodo-1H-benzimidazole]
Adrenal gland/blood ratio of radioactivity accumulation ([1]; 10 min after administration): 52.24 ± 16.82 | Adrenal gland/fat ratio of radioactivity accumulation ([1]; 10 min after administration): 49.21 ± 30.24 | Adrenal gland/kidney ratio of radioactivity accumulation ([1]; 10 min after administration): 3.95 ± 1.50 | Adrenal gland/liver ratio of radioactivity accumulation ([1]; 10 min after administration): 4.37 ± 1.12 | Adrenal gland/muscle ratio of radioactivity accumulation ([1]; 10 min after administration): 34.85 ± 6.45 | Adrenal gland/small intestine ratio of radioactivity accumulation ([1]; 10 min after administration): 3.44 ± 1.04 | Radioactivity distribution Adrenal gland ([1]; 10 min after administration): 10.24 ± 4.48 % ID/g | Radioactivity distribution Bladder (including urine) ([1]; 10 min after administration): 0.43 ± 0.13 % ID/g | Radioactivity distribution Blood ([1]; 10 min after administration): 0.13 ± 0.01 % ID/g | Radioactivity distribution Fat ([1]; 10 min after administration): 0.11 ± 0.01 % ID/g | Radioactivity distribution Femur ([1]; 10 min after administration): 0.85 ± 0.40 % ID/g | Radioactivity distribution Heart ([1]; 10 min after administration): 0.65 ± 0.09 % ID/g | Radioactivity distribution Kidney ([1]; 10 min after administration): 2.09 ± 0.09 % ID/g | Radioactivity distribution Large intestine ([1]; 10 min after administration): 0.11 ± 0.01 % ID/g | Radioactivity distribution Liver ([1]; 10 min after administration): 4.09 ± 0.45 % ID/g | Radioactivity distribution Lung ([1]; 10 min after administration): 0.98 ± 0.16 % ID/g | Radioactivity distribution Muscle (lower limbs) ([1]; 10 min after administration): 0.18 ± 0.05 % ID/g | Radioactivity distribution Remaining whole body ([1]; 10 min after administration): 0.24 ± 0.01 % ID/g | Radioactivity distribution Small intestine ([1]; 10 min after administration): 1.29 ± 0.12 % ID/g | Radioactivity distribution Spleen ([1]; 10 min after administration): 5.59 ± 1.78 % ID/g | Radioactivity distribution Stomach ([1]; 10 min after administration): 0.66 ± 0.34 % ID/g | Radioactivity distribution Testis ([1]; 10 min after administration): 0.04 ± 0.01 % ID/g | Radioactivity distribution Whole brain ([1]; 10 min after administration): 0.01 ± 0.00 % ID/g | Adrenal gland/blood ratio of radioactivity accumulation ([1]; 30 min after administration): 199.21 ± 91.92 | Adrenal gland/fat ratio of radioactivity accumulation ([1]; 30 min after administration): 106.15 ± 23.20 | Adrenal gland/kidney ratio of radioactivity accumulation ([1]; 30 min after administration): 12.16 ± 7.12 | Adrenal gland/liver ratio of radioactivity accumulation ([1]; 30 min after administration): 17.77 ± 9.08 | Adrenal gland/muscle ratio of radioactivity accumulation ([1]; 30 min after administration): 98.15 ± 67.95 | Adrenal gland/small intestine ratio of radioactivity accumulation ([1]; 30 min after administration): 3.25 ± 1.07 | Radioactivity distribution Adrenal gland ([1]; 30 min after administration): 15.46 ± 8.64 % ID/g | Radioactivity distribution Bladder (including urine) ([1]; 30 min after administration): 1.13 ± 0.19 % ID/g | Radioactivity distribution Blood ([1]; 30 min after administration): 0.10 ± 0.02 % ID/g | Radioactivity distribution Fat ([1]; 30 min after administration): 0.12 ± 0.03 % ID/g | Radioactivity distribution Femur ([1]; 30 min after administration): 0.83 ± 0.03 % ID/g | Radioactivity distribution Heart ([1]; 30 min after administration): 0.64 ± 0.04 % ID/g | Radioactivity distribution Kidney ([1]; 30 min after administration): 1.65 ± 0.27 % ID/g | Radioactivity distribution Large intestine ([1]; 30 min after administration): 0.14 ± 0.02 % ID/g | Radioactivity distribution Liver ([1]; 30 min after administration): 1.89 ± 0.21 % ID/g | Radioactivity distribution Lung ([1]; 30 min after administration): 0.97 ± 0.10 % ID/g | Radioactivity distribution Muscle (lower limbs) ([1]; 30 min after administration): 0.16 ± 0.02 % ID/g | Radioactivity distribution Remaining whole body ([1]; 30 min after administration): 0.27 ± 0.01 % ID/g | Radioactivity distribution Small intestine ([1]; 30 min after administration): 3.40 ± 0.80 % ID/g | Radioactivity distribution Spleen ([1]; 30 min after administration): 6.71 ± 0.48 % ID/g | Radioactivity distribution Stomach ([1]; 30 min after administration): 0.61 ± 0.14 % ID/g | Radioactivity distribution Testis ([1]; 30 min after administration): 0.05 ± 0.01 % ID/g | Radioactivity distribution Whole brain ([1]; 30 min after administration): 0.01 ± 0.00 % ID/g | Adrenal gland/blood ratio of radioactivity accumulation ([1]; 60 min after administration): 235.46 ± 58.57 | Adrenal gland/fat ratio of radioactivity accumulation ([1]; 60 min after administration): 108.45 ± 23.85 | Adrenal gland/kidney ratio of radioactivity accumulation ([1]; 60 min after administration): 13.73 ± 3.51 | Adrenal gland/liver ratio of radioactivity accumulation ([1]; 60 min after administration): 20.07 ± 5.16 | Adrenal gland/muscle ratio of radioactivity accumulation ([1]; 60 min after administration): 124.82 ± 30.33 | Adrenal gland/small intestine ratio of radioactivity accumulation ([1]; 60 min after administration): 2.42 ± 0.71 | Radioactivity distribution Adrenal gland ([1]; 60 min after administration): 18.65 ± 1.67 % ID/g | Radioactivity distribution Bladder (including urine) ([1]; 60 min after administration): 3.04 ± 1.32 % ID/g | Radioactivity distribution Blood ([1]; 60 min after administration): 0.06 ± 0.01 % ID/g | Radioactivity distribution Fat ([1]; 60 min after administration): 0.12 ± 0.04 % ID/g | Radioactivity distribution Femur ([1]; 60 min after administration): 0.90 ± 0.10 % ID/g | Radioactivity distribution Heart ([1]; 60 min after administration): 0.56 ± 0.01 % ID/g | Radioactivity distribution Kidney ([1]; 60 min after administration): 1.23 ± 0.01 % ID/g | Radioactivity distribution Large intestine ([1]; 60 min after administration): 0.55 ± 0.52 % ID/g | Radioactivity distribution Liver ([1]; 60 min after administration): 0.96 ± 0.10 % ID/g | Radioactivity distribution Lung ([1]; 60 min after administration): 0.78 ± 0.03 % ID/g | Radioactivity distribution Muscle (lower limbs) ([1]; 60 min after administration): 0.14 ± 0.01 % ID/g | Radioactivity distribution Remaining whole body ([1]; 60 min after administration): 0.28 ± 0.04 % ID/g | Radioactivity distribution Small intestine ([1]; 60 min after administration): 3.98 ± 1.32 % ID/g | Radioactivity distribution Spleen ([1]; 60 min after administration): 5.62 ± 1.11 % ID/g | Radioactivity distribution Stomach ([1]; 60 min after administration): 0.89 ± 0.21 % ID/g | Radioactivity distribution Testis ([1]; 60 min after administration): 0.05 ± 0.01 % ID/g | Radioactivity distribution Whole brain ([1]; 60 min after administration): 0.01 ± 0.00 % ID/g | B2/B1 accumulation ratio [2]: 1.01 | B2 (PSL value, aldosterone-producing adenoma) ([2]; site 71b): 2043 | B1 (PSL value, normal adrenal cortex) ([2]; site 72b): 2027 | Radiochemical purity after incubation in human plasma [3]: 94%
